≈ marks a conversion by molar mass, not a printed value. Calls of active or inactive are those of the source. The rule behind the calls is not given here.
How the values were obtained:
Phoma = experiment: Antifungal activity against Phoma CCF3818 assessed as inhibition of hyphae elongation after 24 hrs; format: functional; settings: CCF3818, 24 h
Saccharomyces cerevisiae = experiment: Antifungal activity against Saccharomyces cerevisiae at 1000 ug/ml after 24 hrs; format: functional, organism-based
Saprolegnia parasitica = experiment: Antifungal activity against Saprolegnia parasitica assessed as inhibition of hyphae elongation after 24 hrs; format: functional

MIC (Saccharomyces cerevisiae) | MIC (Saprolegnia parasitica) [µg/mL] | Compound | MIC (Phoma) [µg/mL]
inactive | 3 (≈ 8.25 µM) | C[C@]1(C(=O)O)[C@@H](O)CC[C@]2(C)c3cc4c(cc3CC[C@@H]12)[nH]c1ccccc14 [ORIDAMYCIN A] | 242 (≈ 666 µM)
 |  | C[C@@H]1C[C@@H]([C@H](O)CC2CC(=O)NC(=O)C2)C(=O)[C@@H](C)C1 [CYCLOHEXIMIDE] | 25 (≈ 88.9 µM)
